Measured values from Sander's compilation of Henry's law constants (doi:10.1021/es00034a021).

Assay: Henry solubility constant Hcp at 298.15 K (mol/(m3 Pa))
Details: reference: Tse et al. (1992)

Structure (SMILES)	Henry solubility constant Hcp
ClCC(Cl)(Cl)Cl [1,1,1,2-tetrachloroethane]	0.0045
CC(Cl)(Cl)Cl [1,1,1-trichloroethane]	0.00063
ClC(Cl)C(Cl)Cl [1,1,2,2-tetrachloroethane]	0.026
ClCC(Cl)Cl [1,1,2-trichloroethane]	0.011
C=C(Cl)Cl [1,1-dichloroethene]	0.00035
CC(Cl)CCl (stereo not drawn) [1,2-dichloropropane]	0.0038
ClC(Cl)Br [bromodichloromethane]	0.0048
ClC(Br)Br [dibromochloromethane]	0.0093
BrCBr [dibromomethane]	0.011
ClCCl [dichloromethane]	0.0039
ClC(Cl)(Cl)Cl [tetrachloromethane]	0.00038
BrC(Br)Br [tribromomethane]	0.019
ClC=C(Cl)Cl [trichloroethene]	0.0011
